# Measured values as given in patent US6830893B2 (priority 1999, dated 2004).
# Entries after “also recorded” stand apart in the source; their conditions may differ. Where two headings read alike, the source gives them in different places.
# Key:
# FPRL1 [1] = target: T1, FPRL1 (Homo sapiens, UniProt P25090); test: Chemotaxis of FPRL1/293 cells; format: cell-based; settings: for migration / chemotaxis of FPRL1/293 cells: wide range of concentrations
# T1 construct: expressed in transfected cells; host or cells: human embryonic kidney (HEK) 293 cells, designated FPRL1/293
# T1 sequence (P25090 1-351): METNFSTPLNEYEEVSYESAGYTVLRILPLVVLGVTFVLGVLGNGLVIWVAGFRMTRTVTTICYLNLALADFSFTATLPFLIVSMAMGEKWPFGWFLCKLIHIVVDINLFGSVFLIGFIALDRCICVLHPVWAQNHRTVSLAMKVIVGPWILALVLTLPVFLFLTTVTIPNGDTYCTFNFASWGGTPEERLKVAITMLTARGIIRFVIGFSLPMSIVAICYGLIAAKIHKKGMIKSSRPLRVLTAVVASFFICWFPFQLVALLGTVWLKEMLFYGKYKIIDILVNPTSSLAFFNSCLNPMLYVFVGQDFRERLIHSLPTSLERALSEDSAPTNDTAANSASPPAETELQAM
# Procedure: The chemotactic response of cells transfected with a nucleic acid encoding FPR or FPRL1 was tested as another sensitive parameter to assess the receptor targets of T21/DP107. (Gong et al., J. Biol. Chem. 273: 4289 (1998); Gong et al., J. Biol. Chem. 272:11682 (1997); and Ben-Baruch et al., J. Biol. Chem. 270: 22123 (1995)). Accordingly, different concentrations of T21/DP107 were placed in the lower wells of a chemotaxis chamber and a cell suspension was placed in the upper wells. The upper and lower wells were separated by polycarbonate filters precoated with mouse collagen type I. After incubation, the cells that migrated across the filters were stained and counted. […] The CI (chemotaxis index), which represents the fold increase of leukocyte migration in response to T21/DP107 over control medium, was also determined. […] (FIG. 9B).
# Leukocytes, ETFR and FPRL1/293 cell migration was assessed using a 48-well microchemotaxis chamber technique as previously described. (Gong et al., J. Biol. Chem. 273: 4289 (1998); Gong et al., J. Biol. Chem. 272: 11682 (1997); and Kliger et al., J. Biol. Chem. 272: 13496 (1997)). Different concentrations of stimulants were placed in wells of the lower compartment of the chamber (Neuro Probe, Cabin John, Mass.), the cell suspension was seeded in wells of the upper compartment which was separated from the lower compartment by a polycarbonate filter (Osmonics, Livermore, Calif.; 5 μm-pore size for leukocytes, 10 μm pore-size for ETFR and FPRL1/293 cells). For CD3+ T lymphocytes, the filters were precoated with 20 μg/ml bovine fibronectin (Sigma). The filters for ETFR and FPRL1/293 cell migration were precoated with 50 μg/ml collagen type I (Collaborative Biomedical products, Bedford, Mass.) to favor the attachment of the cells. After incubation at 37° C. (90 min for monocytes, 60 min for neutrophils, 180 min for T cells and 300 min for ETFR or FPRL1/293 cells), the filters were removed, stained and the cells migrating across the filter were counted by light microscopy after coding the samples. […] The significance of the increase in cell migration was determined using Student's t test and CI≧2 was statistically significant compared to medium control (at least p<0.05).
# human monocytes = test: Calcium mobilization (Fura-2) in human monocytes; format: cell-based
# FPRL1 [2] = target: T1, FPRL1; format: cell-based
# Procedure: (Prossnitz and Ye, Pharmacol. Ther. 74: 73 (1997); Murphy, The N-formyl peptide chemotactic receptors, Chemoattractant ligands and their receptors. CRC Press, Boca Raton, p. 269 (1996); and Gao and M. Murphy, J. Biol. Chem. 268: 25395 (1993)).
# (§1) Calcium mobilization was assayed by incubating 107/ml of monocytes, neutrophils, FPRL1 or ETFR transfectants in loading buffer containing 138 mM NaCl, 6 mM KCl, 1 mM CaCl2, 10 mM HEPES (pH 7.4), 5 mM glucose, 0.1% BSA with 5 μM Fura-2 (Sigma) at 37° C. for 30 min. The dye-loaded cells were washed and resuspended in fresh loading buffer. The cells were then transferred into quartz cuvettes ([…] in 2 ml) which were placed in a luminescence spectrometer LS50 B (Perkin-Elmer Limited, Beaconsfield, England). Stimulants at different concentrations were added in a volume of 20 μl to the cuvettes at indicated time points. The ratio of fluorescence at 340 and 380 nm wavelength was calculated using the FL WinLab program (Perkin Elmer).
# neutrophils = test: Calcium mobilization (Fura-2) in human neutrophils; format: cell-based
# mock-transfected cells = test: Chemotaxis of mock-transfected cells; format: cell-based, rat; settings: FIG. 3E
# [3] = test system: mock-transfected parental cells; test: Calcium mobilization in parental or mock-transfected rat basophil cell line; format: cell-based; settings: rat basophil cell line without FPR
# Procedure: as §1, with “neutrophils” for “neutrophils, FPRL1”, “cells” for “transfectants”, “transfered” for “transferred”
# human neutrophils = format: cell-based
# HEK 293 cells = test: Calcium mobilization in parental or mock transfected HEK 293 cells; format: cell-based, human; settings: control experiments
# Procedure: (FIGS. 8C1, 8C2, 8F1, and 8F2).
# as §1
# [4] = test system: human peripheral blood monocytes; format: cell-based
# HIV-1 = settings: T lymphocyte tropic and monocyte tropic HIV-1; Lawless et al. 1996; cited from earlier work
# [5] = monocytes, pertussis toxin at 100 ng/ml for 30 min at 37° C. (FIG. 1B)
# [6] = monocytes, pertussis toxin at 100 ng/ml for 30 min at 37° C. (FIG. 6B)
compound,measurement,setting,value
"CCCCC[C@H](O)/C=C/C=C\C=C\C=C\[C@@H](O)[C@@H](O)CCCC(=O)O [LXA4, lipoxin A4]",migration / chemotaxis of FPRL1/293 cells,FPRL1 [1],did not detect significant induction
same,migration / chemotaxis of FPRL1/293 cells,FPRL1 [1]; listed as lipoxin A4,not able to induce
same,inhibition of T21/DP107 signaling,"human monocytes; phagocytes (monocytes), commercially available LXA4 (Biomol)",nor did we observe inhibition
same,induction of Ca++ mobilization in FPRL1 expressing cells,FPRL1 [2]; FPRL1/293 cells,did not detect significant induction
same,inhibition of T21/DP107 signaling,"FPRL1 [2]; FPRL1/293 cells, commercially available LXA4 (Biomol)",nor did we observe inhibition
same,induction of Ca++ mobilization in FPRL1 expressing cells,"FPRL1 [2]; FPRL1/293 cells, listed as lipoxin A4",not able to induce
same,inhibition of T21/DP107 signaling,"neutrophils; phagocytes (neutrophils), commercially available LXA4 (Biomol)",nor did we observe inhibition
"CSCC[C@H](NC=O)C(=O)N[C@@H](CC(C)C)C(=O)N[C@@H](Cc1ccccc1)C(=O)O [fMLP, N-formyl-methionyl-leucyl-phenylalanine]",migration of mock-transfected cells,mock-transfected cells,did not induce migration
same,Ca++ flux in parental or mock-transfected cells,[3],Neither peptide stimulated; also recorded: did not induce any
same,migration / chemotaxis of FPRL1 expressing cells,FPRL1 [1]; at concentrations as high as 50 μM (5×10−5 M),does not induce significant chemotaxis; also recorded: failed to induce significant migration
same,migration / chemotaxis of FPRL1/293 cells,FPRL1 [1],failed to migrate
same,desensitizing effect on T20/DP178-induced Ca++ mobilization,"human monocytes; monocytes, fMLP 100 nM, T20/DP178 100 nM",desensitizes; also recorded: marked desensitizing effect
same,desensitizing effect on T21/DP107-induced Ca++ mobilization,"human monocytes; monocytes, high concentrations (≧1 μM) of fMLP, T21/DP107 1 μM",desensitizes; also recorded: partial desensitizing effect
same,migration across the filters (microscopy at 200× magnification),human neutrophils,significant migration
same,Ca++ mobilization in parental or mock transfected HEK 293 cells,HEK 293 cells,did not induce any
same,desensitization of T21/DP107-induced Ca++ mobilization,FPRL1 [2],desensitizes
same,minimal effective concentration to induce Ca++ mobilization,FPRL1 [2],low μM range
same,desensitizing effect on T20/DP178-induced Ca++ mobilization,"neutrophils; neutrophils, fMLP 100 nM, T20/DP178 100 nM",desensitizes; also recorded: marked desensitizing effect
same,desensitizing effect on T21/DP107-induced Ca++ mobilization,"neutrophils; neutrophils, high concentrations (≧1 μM) of fMLP, T21/DP107 1 μM",desensitizes; also recorded: partial desensitizing effect
same,migration across the filters (microscopy at 200× magnification),"[4]; monocytes, 100 nM",significant migration
CO[C@H]1[C@@H](OC)C[C@H](C)[C@@H](OC)C2=CC(=O)C=C(NC(=O)/C(C)=C/C=C\[C@H](OC)[C@@H](OC(N)=O)/C(C)=C/[C@@H]1C)C2=O [herbimycin A],inhibition of T20/DP178-induced migration by pretreatment of the cells,human neutrophils; neutrophils,not
same,inhibition of T21/DP107-induced migration by pretreatment of the cells,human neutrophils; neutrophils,not
same,inhibition of T20/DP178-induced migration by pretreatment of the cells,[4]; [5],not
same,inhibition of T21/DP107-induced migration by pretreatment of the cells,[4]; [6],not
QNQQEKNEQELLELDKWASLWNWF [T914],anti-HIV-1 fusion activity,HIV-1,ineffective
cholera toxin,inhibition of T20/DP178-induced migration by pretreatment of the cells,human neutrophils,not
same,inhibition of T21/DP107-induced migration by pretreatment of the cells,human neutrophils,not
same,inhibition of T20/DP178-induced migration by pretreatment of the cells,[4],not
same,inhibition of T21/DP107-induced migration by pretreatment of the cells,[4],not
pertussis toxin,inhibition of T20/DP178-induced migration by pretreatment of the cells,human neutrophils; neutrophils,completely inhibited
same,inhibition of T21/DP107-induced migration by pretreatment of the cells,human neutrophils; neutrophils,completely inhibited
same,inhibition of T20/DP178-induced migration by pretreatment of the cells,[4]; [5],completely inhibited
same,inhibition of T21/DP107-induced migration by pretreatment of the cells,[4]; [6],inhibition; also recorded: completely inhibited
